These results are taken from publication PMC7812606 (ACS Medicinal Chemistry Letters, 2020).

“Also recorded” adds a separate entry of the source.

Data set [1] addresses panel of ∼374 wild-type kinases. Put plainly: Kinase panel profiling, overall. It is filed as biochemical. The following applies: 17 and 25 at 5 μM, 27 at 10 μM.
Data set [2] has as its system APP^T668 phosphorylation in primary neurons. The experiment in a line: Cell-based inhibition of APP T668 phosphorylation. The following applies: concentration as low as 10 nM.
Another data set is described as follows: In vivo brain exposure. The following applies: mice.
The target of a further data set is JNK3 (Homo sapiens, UniProt P53779). In kind it is biochemical. The following applies: JNK3 or JNK1.
The target in the next data set is JNK2 (Homo sapiens, UniProt P45984). It is filed as biochemical. The following applies: isoform selectivity, fold.
JNK2, sequence (P45984 whole entry, canonical isoform): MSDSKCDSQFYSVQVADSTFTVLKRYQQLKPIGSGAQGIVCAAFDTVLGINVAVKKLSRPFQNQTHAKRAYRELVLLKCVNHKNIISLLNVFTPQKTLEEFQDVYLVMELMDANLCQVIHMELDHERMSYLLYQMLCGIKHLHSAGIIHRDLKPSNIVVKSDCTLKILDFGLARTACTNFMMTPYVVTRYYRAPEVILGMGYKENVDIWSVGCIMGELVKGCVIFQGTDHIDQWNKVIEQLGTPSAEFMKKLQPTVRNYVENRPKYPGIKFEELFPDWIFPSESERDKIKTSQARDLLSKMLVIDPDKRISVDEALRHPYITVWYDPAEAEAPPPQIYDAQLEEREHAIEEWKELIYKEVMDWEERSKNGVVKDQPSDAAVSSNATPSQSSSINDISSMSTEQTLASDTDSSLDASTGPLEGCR

JNK3, sequence (P53779 whole entry, canonical isoform): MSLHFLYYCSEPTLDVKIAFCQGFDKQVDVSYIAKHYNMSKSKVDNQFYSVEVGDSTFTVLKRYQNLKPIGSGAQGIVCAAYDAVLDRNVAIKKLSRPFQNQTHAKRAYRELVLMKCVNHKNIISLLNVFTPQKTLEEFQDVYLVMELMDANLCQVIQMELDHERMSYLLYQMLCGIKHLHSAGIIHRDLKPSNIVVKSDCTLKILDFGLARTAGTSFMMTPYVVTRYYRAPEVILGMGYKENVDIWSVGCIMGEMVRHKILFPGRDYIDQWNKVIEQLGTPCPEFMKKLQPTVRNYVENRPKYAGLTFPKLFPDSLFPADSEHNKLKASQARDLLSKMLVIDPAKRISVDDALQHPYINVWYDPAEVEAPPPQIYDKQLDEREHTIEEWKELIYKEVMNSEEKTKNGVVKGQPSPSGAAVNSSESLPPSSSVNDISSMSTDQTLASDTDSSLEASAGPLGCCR

Consider `O=C(Nc1cnn(-c2csc(C(=O)NC3COC3)c2)c1)Nc1ccccc1Cl` [Compound 17], for which the “kinases with significant inhibition (>80% inhibition) in panel” value in data set [1] is reported as “significant inhibition to only JNK3; also recorded: against only JNK3”. Moreover, the “inhibition of phosphorylation of residue T668 of APP” value (“inhibition … of APP” below) in data set [2] is given as “significantly inhibited”. Besides, in “In vivo brain exposure” (po dosing), the brain penetration entry is on record as “brain penetrant” and the oral bioavailability result is recorded as “has oral bioavailability”. In “In vivo brain exposure” (po, 10 mg/kg, 1 h after dosing), this compound gave a brain concentration of 1080 nM and a plasma concentration of 960 nM.
As for `Cc1sc(C(=O)N[C@@H]2CCOC2)cc1-n1cc(NC(=O)Nc2c(F)cccc2Cl)cn1` [Compound 28], the “inhibition … of APP” value in data set [2] is “significantly inhibited”.
With `O=C(Nc1cnn(-c2nc(C(=O)NC3CNC3)cs2)c1)Nc1ccccc1Cl` [Compound 3], the “inhibition of JNK3 and JNK1 in words” value against JNK3 was “no inhibitions”.
With `O=C(Nc1cnn(-c2csc(C(=O)NC3COC3)c2)c1)Nc1c(F)cccc1Cl` [Compound 25], in data set [1], the “kinases with significant inhibition (>80% inhibition) in panel” value is recorded as “against only JNK3”.
`O=C(Nc1cnn(-c2csc(C(=O)NC3COC3)c2)c1)Nc1ccc(F)cc1Cl` [Compound 26]: the “inhibition … of APP” value in data set [2] is recorded as “significantly inhibited”.
Consider `Cc1sc(C(=O)NC2COC2)cc1-n1cc(NC(=O)Nc2c(F)cccc2Cl)cn1` [Compound 27], for which the “kinases with significant inhibition (>80% inhibition) in panel” value in data set [1] is listed as “against only JNK3”.
Turning to `O=C(Nc1cnn(-c2csc(C(=O)N[C@@H]3CCOC3)c2)c1)Nc1ccccc1Cl` [Compound 16], the “R: ratio of IC50 values for JNK2 over JNK3” value at JNK2 is on record as > 250.
